From patent EP0915086A1, “PHENYLSULFONAMIDE DERIVATIVES” (ONO PHARMACEUTICAL CO., LTD., priority 1996, dated 1997)
Structures can show the parent of a compound that is named as a salt.

Legend:
gelatinase A = molecular target: T1, gelatinase A (Homo sapiens, UniProt P08253); assay: Inhibitory activity against gelatinase A; assay type: biochemical; conditions: progelatinase A from human normal skin dermal fibroblasts (HNDF), activated with APMA; substrate MOCAc-Pro-Leu-Gly-A2pr(Dnp)-Ala-Arg-NH2; 37 °C, 20 minutes; fluorescence Ex 328 nm, Em 393 nm
T1 construct: endogenous in cells; host or cells: human normal skin dermal fibroblasts (HNDF)
T1 sequence (P08253 110-660): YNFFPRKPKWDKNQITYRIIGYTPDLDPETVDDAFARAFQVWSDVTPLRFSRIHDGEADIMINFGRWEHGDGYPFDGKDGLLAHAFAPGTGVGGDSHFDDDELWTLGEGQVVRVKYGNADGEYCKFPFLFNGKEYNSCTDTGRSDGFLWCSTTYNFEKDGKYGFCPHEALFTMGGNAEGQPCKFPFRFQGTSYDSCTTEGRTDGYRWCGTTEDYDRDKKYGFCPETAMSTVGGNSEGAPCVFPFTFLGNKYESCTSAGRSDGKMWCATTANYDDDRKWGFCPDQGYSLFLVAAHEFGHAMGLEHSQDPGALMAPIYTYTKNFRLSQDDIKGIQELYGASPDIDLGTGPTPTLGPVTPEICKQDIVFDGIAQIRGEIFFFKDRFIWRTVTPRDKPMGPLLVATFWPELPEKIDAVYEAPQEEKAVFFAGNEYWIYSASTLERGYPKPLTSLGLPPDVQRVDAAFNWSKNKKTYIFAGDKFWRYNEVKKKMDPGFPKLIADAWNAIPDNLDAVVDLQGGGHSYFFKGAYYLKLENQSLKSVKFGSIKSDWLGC
Protocol: Progelatinase A (7 µl; in assay buffer (90 µl)) was purified from human normal skin dermal fibroblasts (HNDF). It was activated by addition of 10 mM p-aminophenyl mercuric acetate (APMA) (10 µl) and preincubation at 37 °C for 1 hour. The solution (890 µl; the final concentration was […]) of the synthetic substrates (MOCAc-Pro-Leu-Gly-A2pr(Dnp)-Ala-Arg-NH2) was mixed with various concentrations of the test compound or a solution without it (10 µl) and the mixture was preincubated at 37 °C for 5 minutes. The activated gelaninase A prepared above (7 µl/tube, 100 µl) was added to the reaction mixture and further incubated at 37 °C for 20 minutes. The enzyme reaction was terminated by addition of 0.1 M sodium acetate buffer (2ml; pH 4.0).
The IC50 value was determined by measuring the fluorescent intensity (Ex = 328 nm, and Em = 393 nm) in this solution.

collagenase = molecular target: T2, collagenase (Homo sapiens, UniProt P03956); assay: Inhibitory activity against collagenase; assay type: biochemical; conditions: procollagenase from human normal dermal fibroblasts (HNDF), activated with trypsin; substrate Ac-Pro-Leu-Gly-[2-mercapto-4-methyl-pentanoyl]-Leu-Gly-OEt; 26 °C, 10 minutes; absorption at 324 nm
T2 construct: endogenous in cells; host or cells: human normal dermal fibroblasts (HNDF)
T2 sequence (P03956 100-469): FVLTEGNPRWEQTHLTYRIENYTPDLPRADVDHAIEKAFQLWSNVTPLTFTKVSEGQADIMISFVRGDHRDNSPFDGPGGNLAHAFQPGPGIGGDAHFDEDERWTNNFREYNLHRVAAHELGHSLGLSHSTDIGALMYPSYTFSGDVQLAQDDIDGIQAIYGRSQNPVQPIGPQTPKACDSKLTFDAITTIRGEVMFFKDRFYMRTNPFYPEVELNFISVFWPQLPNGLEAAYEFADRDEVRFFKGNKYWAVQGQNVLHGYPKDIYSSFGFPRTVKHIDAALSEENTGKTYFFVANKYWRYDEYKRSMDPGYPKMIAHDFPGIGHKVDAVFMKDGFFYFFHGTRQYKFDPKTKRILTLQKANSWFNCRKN
Protocol: Trypsin (45 µl; 1 mg/ml) was added to a solution of procollagenase (5 µM) purified from human normal dermal fibloblasts (HNDF) in assay buffer (105 µl). The solution was preincubated in order to activate the enzyme at 37°C for 1 minute.
Trypsin was inactivated by addition of soybean trypsin inhibitor (SBTI; 50 µl). Solutions (20 µl) of synthetic substrate (Ac-Pro-Leu-Gly-[2-mercapto-4-methyl-pentanoyl]-Leu-Gly-OEt) (105 µl; the final concentration […]) with or without various concentrations of the test compound were preincubated for 5 minutes at 26 °C.
To the solutions, activated enzyme (75 µl/tube, 50 µl) prepared above was added. The mixtures were incubated at 26 °C for 10 minutes.
Absorption at 324 nm was measured at 40 points during the 10 minutes.
Vmax value was determined as measured value in 30 points therein.

Row | IC50 (gelatinase A) | IC50 (collagenase) | Compound
1 | 7.5 nM |  | Cc1ccc(C#Cc2ccc(S(=O)(=O)N(C)[C@H](C)C(=O)NO)cc2)cc1 [Example 10, N-Hydroxy-[N-methyl-N-[4-[2-(4-methylphenyl)ethynyl]phenylsulfonyl]-D-alanyl]amide]
2 |  | 290 nM | CC#Cc1ccc(S(=O)(=O)N(C)[C@H](C)C(=O)NO)cc1 [Example 10(13), N-Hydroxy-[N-methyl-N-[4-(1-propynyl)phenylsulfonyl]-D-alanyl]amide]
3 | 0.8 nM | 63 nM | C#Cc1ccc(S(=O)(=O)N[C@H](CCC(=O)NCCc2ccccc2)C(=O)NO)cc1 [Example 6(17), N-Hydroxy-[N-(4-ethynyl)phenylsulfonyl-N'-(2-phenylethyl)-D-glutaminyl]amide]
4 | 0.7 nM |  | CCCC#Cc1ccc(S(=O)(=O)N(C)[C@H](C)C(=O)NO)cc1 [Example 10(4)]
5 | 0.4 nM |  | C[C@H](C(=O)NO)N(C)S(=O)(=O)c1ccc(C#Cc2ccc(-n3ccnc3)cc2)cc1 [Example 10(3), N-Hydroxy-[N-methyl-N-[4-[2-[4-(1-imidazolyl)phenyl]ethynyl]phenylsulfonyl]-D-alanyl]amide hydrochloride]
6 |  | 65 nM | C#Cc1ccc(S(=O)(=O)N[C@H](CCC(=O)NC(Cc2ccccc2)c2ccccc2)C(=O)NO)cc1 (stereo partly drawn) [Example 6(19), N-Hydroxy-[N-(4-ethynyl)phenylsulfonyl-N'-(1,2-diphenylethyl)-D-glutaminyl]amide]

Further lines, the compound ahead of its results:

Row | Compound | IC50 (gelatinase A) | IC50 (collagenase)
7 | Cc1ccc(/C=C/c2ccc(S(=O)(=O)N[C@H](C)C(=O)NO)cc2)cc1 [Example 6(2), N-Hydroxy-[N-[4-[2-(4-methylphenyl)ethenyl]phenylsulfonyl]-D-alanyl]amide] | 0.2 nM | 
8 | Cc1ccc(C#Cc2ccc(S(=O)(=O)N[C@H](C)C(=O)NO)cc2)cc1 [Example 6(4), N-Hydroxy-[N-[4-[2-(4-methylphenyl)ethynyl]phenylsulfonyl]-D-alanyl]amide] | 0.7 nM | 
9 | Cc1ccc(C=Cc2ccc(S(=O)(=O)N[C@H](C)C(=O)O)cc2)cc1 (stereo in doubt) [Example 3(1), N-[4-[2-(4-Methylphenyl)ethenyl]phenylsulfonyl]-D-alanine] | 6.2 nM | 
10 | Cc1ccc(C#Cc2ccc(S(=O)(=O)N[C@H](Cc3c[nH]c4ccccc34)C(=O)O)cc2)cc1 [Example 2(4), N-[4-[2-(4-Methylphenyl)ethynyl]phenylsulfonyl]-D-tryptophan] | 6.5 nM | 
11 | CCCC#Cc1ccc(S(=O)(=O)N[C@H](C)C(=O)NO)cc1 [Example 6(1), N-Hydroxy-[N-[4-(1-pentynyl)phenylsulfonyl]-D-alanyl]amide] | 1.2 nM | 
12 | Cc1ccc(C#Cc2ccc(S(=O)(=O)N[C@H](C)C(=O)O)cc2)cc1 [Example 2(1), N-[4-[2-(4-Methylphenyl)ethynyl]phenylsulfonyl]-D-alanine] | 13 nM | 
13 | CN(CCc1ccccc1)C(=O)CC[C@@H](NS(=O)(=O)c1ccc(C#Cc2ccc(-n3ccnc3)cc2)cc1)C(=O)O [Example 2(27), N-[4-[2-(4-Imidazolylphenyl)ethynyl]phenylsulfonyl]-N'-methyl-N'-(2-phenylethyl)-D-glutamine] | 3.3 nM | 
14 | CCCCCC#Cc1ccc(S(=O)(=O)N[C@H](C)C(=O)NO)cc1 [Example 6(11), N-Hydroxy-[N-[4-[4-(1-heptynyl)]phenylsulfonyl]-D-alanyl]amide] | 2.4 nM | 
15 | O=C(O)[C@@H](Cc1c[nH]c2ccccc12)NS(=O)(=O)c1ccc(C#Cc2ccc(-n3ccnc3)cc2)cc1 [Example 2(18), N-[4-[2-(4-Imidazolylphenyl)ethynyl]phenylsulfonyl]-D-tryptophan] | 11 nM | 
